Where two headings read alike, the source gives them in different places.
System: LPS-induced TNF-α expression
Assay: LPS-induced TNF-α expression in murine peritoneal macrophages (ELISA)
Assay type: cell-based
Conditions: Mus musculus, Peritoneal macrophage
Experimental: C57BL/6 mice were injected intraperitoneally with 3% thioglycollate, and their peritoneal macrophages were collected 72 h later. Macrophages were cultured in DMEM supplemented with 10% FBS and 50 μg/mL gentamicin at 37° C. in a humidified atmosphere of 5% CO2. […] Cell lysates were subjected to SDS-PAGE for detection of COX2 and iNOS expression. The presence of nitrite (a metabolite of NO) in the culture medium was analyzed by the Griess assay (Sigma-Aldrich), as previously described (16).

[1] = 2 h, read-out: Inhibition of 2 h-TNF-α (%)
[2] = 4 h, read-out: Inhibition of 4 h-TNF-α (%)

Structure (SMILES) | inhibition at 10 µM [1] [%] | inhibition at 10 µM [2] [%]
CC(=O)CC[C@@H](C)[C@H]1CCC2C3=C(C(=O)C[C@@]21C)[C@@]1(C)CCC(=O)[C@@H](C)C1CC3=O (stereo partly shown) [No. 21, Camphoratin L] | 73.9 | 30.6
C=C(CC[C@@H](C)[C@H]1CC[C@H]2C3=C(C(=O)[C@H](O)[C@]12C)[C@@]1(C)CC[C@@H](O)[C@@H](C)C1C[C@@H]3O)C(C)C(=O)O (stereo partly shown) [No. 12, Camphoratin A] | 22.8 | 29.9
C=C(CC[C@@H](C)[C@H]1CC[C@@H]2C3=C(C(=O)C[C@@]21C)[C@@]1(C)CCC(=O)[C@@H](C)C1CC3)C(C)C(=O)OC (stereo partly shown) [No. 19, Camphoratin J] | 73.4 | 90.2
C=C(CC[C@@H](C)[C@H]1CC[C@H]2C3=C(C(=O)C[C@]12C)[C@@]1(C)CCC(=O)[C@@H](C)[C@@H]1CC3=O)C(C)C(=O)OC (stereo partly shown) [No. 2, Zhankuic acid A methyl ester] | 51.6 | 80.3
C=C(CC[C@@H](C)[C@H]1CC[C@H]2C3=C(C(=O)C[C@]12C)[C@@]1(C)CCC(=O)[C@@H](C)[C@@H]1CC3)C(C)C(=O)O (stereo partly shown) [No. 7, Antcin A] | 40.6 | 90.7
C=C(CC[C@@H](C)[C@H]1CCC2C3=C(C(=O)C[C@@]21C)[C@@]1(C)CCC(=O)[C@@H](C)C1C[C@@H]3O)C(C)C(=O)O (stereo partly shown) [No. 9, Antcin C] | 43.6 | 43.1
C=C(CC[C@@H](C)[C@H]1CC[C@H]2C3=C(C(=O)[C@H](O)[C@]12C)[C@@]1(C)CC[C@@H](O)[C@@H](C)[C@@H]1CC3=O)C(C)C(=O)OC (stereo partly shown) [No. 27, Methyl antcinate H] | 79.8 | 91.5
C=C(CC[C@@H](C)[C@H]1CCC2C3=C(C(=O)C[C@@]21C)[C@@]1(C)CCC(=O)[C@@H](C)C1C[C@H]3O)C(C)C(=O)O (stereo partly shown) [No. 17, Camphoratin G] | 68.8 | 22.5
C=C(CC[C@@H](C)[C@H]1CC[C@H]2C3=C(C(=O)C[C@]12C)[C@@]1(C)CC[C@@H](O)[C@](C)(O)[C@@H]1C[C@@H]3O)C(C)C(=O)O (stereo partly shown) [No. 10, Antcin K] | 49.4 | 88.5
C=C(CC[C@@H](C)[C@H]1CCC2C3=C(C(=O)C[C@@]21C)[C@@]1(C)CCC(=O)[C@@H](C)C1CC3=O)C(C)C(=O)OCC (stereo partly shown) [No. 6, Zhankuic acid D] | 67.1 | 54.8
C=C(CCC(C)C1CCC2C3=C(C(=O)C[C@@]21C)[C@@]1(C)CCC(=O)[C@@H](C)C1CC3=O)C(C)C(=O)O (stereo in doubt) [No. 1, Zhankuic acid A] | 42.4 | 85.6
C=C(CC[C@@H](C)[C@H]1CC[C@H]2C3=C(C(=O)[C@H](O)[C@]12C)[C@@]1(C)CC[C@@H](O)[C@@H](C)[C@@H]1CC3=O)C(C)C(=O)O (stereo partly shown) [No. 4, Zhankuic acid C] | 67.5 | 88.8
C=C(CC[C@@H](C)[C@H]1CCC2C3=C(C(=O)[C@H](O)[C@@]21C)[C@@]1(C)CCC(=O)[C@@H](C)C1CC3=O)C(C)C(=O)OC (stereo partly shown) [No. 22, Camphoratin N] | 58.3 | 89
C=C(CC[C@@H](C)[C@H]1CC[C@H]2C3=C(C(=O)C[C@]12C)[C@@]1(C)CCC(=O)[C@@H](C)[C@@H]1CC3)C(C)C(=O)OC (stereo partly drawn) [No. 26, Methyl-4α-methylergost-8,24(28)-diene-3,11-dion-26-oate] | 49.3 | < 0
C=C(CC[C@@H](C)[C@H]1CCC2C3=C(C(=O)C[C@@]21C)[C@@]1(C)CC[C@@H](O)[C@@H](C)C1CC3=O)C(C)C(=O)O (stereo partly shown) [No. 3, Zhankuic acid B] | 68.9 | 88.6
C=C(CC[C@@H](C)[C@H]1CCC2C3=C(C(=O)C[C@@]21C)[C@@]1(C)CC[C@@H](O)[C@@H](C)C1CC3=O)C(C)C(=O)OC (stereo partly shown) [No. 15, Camphoratin E] | 78 | 89.4
C=C(CC[C@@H](C)[C@H]1CC[C@H]2C3=C(C(=O)[C@H](O)[C@]12C)[C@@]1(C)CC[C@@H](OC=O)[C@@H](C)[C@@H]1CC3=O)C(C)C(=O)O (stereo partly shown) [No. 5, Zhankuic acid C 3-O-formate] | 1.62 | 45.3
CC(C)[C@@H](C)/C=C/[C@@H](C)[C@H]1CC[C@@H]2[C@]1(C)CC[C@H]1[C@]23C=C[C@]2(C[C@@H](O)CC[C@]12C)OO3 [No. 25, Ergosterol peroxide] | < 0 | < 0
C=C(CC[C@@H](C)[C@H]1CC[C@H]2C3=C(C(=O)[C@H](O)[C@]12C)[C@@]1(C)CC[C@@H](OC=O)[C@@H](C)[C@@H]1CC3)C(C)C(=O)O (stereo partly shown) [No. 11, Antcin M 3-O-formate] | < 0 | 88.3
C=C(CC[C@@H](C)[C@H]1CC[C@@]2(O)C3=C(C(=O)C[C@]12C)[C@@]1(C)CCC(=O)[C@@H](C)C1C[C@@H]3O)C(C)C(=O)O (stereo partly shown) [No. 14, Camphoratin D] | 65.8 | 81.7
C=C(CC[C@@H](C)[C@H]1CCC2C3=C(C(=O)C[C@@]21C)[C@@]1(C)CCC(=O)[C@@H](C)C1CC3)C(C)C(=O)OC (stereo partly shown) [No. 8, Antcin A methyl ester] | 19.4 | 85.2
C=C(CC[C@@H](C)[C@H]1CCC2C3=C(C(=O)C[C@@]21C)[C@@]1(C)CCC(=O)[C@@H](C)C1C[C@@H]3O)C(C)C(=O)OC (stereo partly shown) [No. 16, Camphoratin F] | 38.2 | 80.2
C=C(CC[C@@H](C)[C@H]1CC[C@H]2C3=C(C(=O)C[C@]12C)[C@@]1(C)CC[C@@H](O)[C@@H](C)C1C[C@@H]3O)C(C)C(=O)O (stereo partly shown) [No. 13, Camphoratin B] | 40.7 | 87

— US20150374718A1, “Zhankuic Acid A and Analogs thereof and Their Use as an Anti-Inflammatory Agent” (National Cheng Kung University, priority 2014, published 2015)
